The numbers were not newly measured in patent US6706285B1, “Enteric coated formulation of a benzimidazole derivative and method for preparation thereof” (Hanms Pharm. Co., Ltd., priority 1998, dated 2004), which cites them from elsewhere.

Like-named read-outs stand apart in the source and are kept apart here.

In the case of `COc1ccc2[nH]c([S+]([O-])Cc3ncc(C)c(OC)c3C)nc2c1` (stereo not drawn) [omeprazole, 5-methoxy-2[[(4-methoxy-3,5-dimethyl-2-pyridinyl)methyl]sulfinyl]-1H-benzimidazole], the half-life result runs as follows: (acidic condition at a pH of 4 or less) “less than 10 minutes”; (at a pH of 11) “about 300 days”; (neutral condition at a pH of about 7.0) “about 14 hours”.
